Experimental data reported in ChEMBL document CHEMBL1156829 (Proc Natl Acad Sci U S A, 2008).

Experiments:
Plasmodium falciparum [1] = experiment: NOVARTIS: Inhibition of Plasmodium falciparum 3D7 (drug-susceptible) proliferation in erythrocyte-based infection assay; type: functional, organism-based; details: Plasmodium falciparum, 3D7
Plasmodium falciparum [2] = experiment: NOVARTIS: Inhibition of Plasmodium falciparum W2 (drug-resistant) proliferation in erythrocyte-based infection assay; type: functional, organism-based; details: Plasmodium falciparum, W2; read-out: EC50
[3] = NOVARTIS: Cytotoxicity against human hepatocellular carcinoma cell line (Huh7); type: toxicity, cell-based, Huh-7; details: Huh7 cells (hepatocellular carcinoma cell line)

| Compound | EC50 (Plasmodium falciparum [1]) | EC50 (Plasmodium falciparum [2]) | CC50 [3] |
| --- | --- | --- | --- |
| COc1ccc(Br)cc1S(=O)(=O)N1CCCc2ccccc21 | 9.95 µM | 11.5 µM | > 100 µM |
| COC(=O)c1c(-c2c(Cl)cccc2Cl)noc1C=CNc1ccccc1 | > 12.5 µM | 8.79 µM | 76.8 µM |
| Cc1ccc(C(=O)C(C)[n+]2ccc(N(C)C)cc2)cc1 (configuration not stated) | 0.438 µM | 4.04 µM | 35.3 µM |
| COc1ccc(NC(=O)/C=C/c2ccccc2Cl)cc1 | > 1.25 µM | > 1.14 µM | > 10 µM |
| NCCNC(=O)COC(c1cccnc1)c1ccccc1Cl (configuration not stated) | > 1.25 µM | > 1.15 µM | > 10 µM |
| CCCCCCN(C(=O)COc1ccc(Cl)cc1)C(CC)c1nc2ccccc2c(=O)n1-c1cccc(Cl)c1 (configuration not stated) | 0.433 µM | 1.14 µM | > 10 µM |
| COC(=O)C1=C(C(=O)OC)SC(=C2C(=S)C(C)(C)N(C(=O)c3ccc([N+](=O)[O-])cc3)c3ccc(C)cc32)S1 | > 0.371 µM | > 1.15 µM | > 10 µM |
| CC(C)CNC(=O)c1cnc(NCCC2CCCN2C)nc1NC1CCCC1 (configuration not stated) | 0.908 µM | 1.14 µM | > 10 µM |
| CCCCCCN(C(=O)c1ccc2ccccc2c1)C(CC)c1nc2ccccc2c(=O)n1-c1cccc(Cl)c1 (configuration not stated) | > 1.25 µM | > 1.13 µM | > 10 µM |
| COc1ccc(-c2cncc3ccc(C(=O)NCc4ccncc4)nc23)cc1 | > 1.35 µM | 1.19 µM | > 10 µM |
| CCOC(=O)c1c(NC(=O)CSc2nnc(CNC(=O)c3cccc(C)c3)n2-c2cccc(C)c2)sc2c1CCC2 | > 1.59 µM | > 1.19 µM | > 10 µM |
| COc1ccc(/C=C2\N=C(c3ccc(Cl)cc3)N(c3ccccc3)C2=O)cc1OC | > 1.25 µM | > 1.15 µM | > 10 µM |
| O=c1[nH]c2cc(Cl)c(Br)nc2[nH]1 | > 1.25 µM | 1.18 µM | > 10 µM |
| C=CCOC(=O)C1=C(C)N=C2SCCC(=O)N2C1c1ccc(OC(=O)c2ccco2)cc1 (configuration not stated) | > 12.4 µM | > 11.9 µM | > 100 µM |
| COc1ccccc1-n1c(=O)c2c3c(sc2n2c(C)nnc12)CCC3 | > 1.25 µM | > 1.19 µM | > 10 µM |
| Cc1c(C)c(C)c(CNC(=S)NN)c(C)c1C | 4.09 µM | > 11.4 µM | > 100 µM |
| COc1ccc(OC)c(NC(=O)c2cnn3c(C(F)(F)F)cc(-c4ccc(OC)c(OC)c4)nc23)c1 | > 1.25 µM | 1.14 µM | > 10 µM |

| Compound | EC50 (Plasmodium falciparum [1]) | EC50 (Plasmodium falciparum [2]) | CC50 [3] |
| --- | --- | --- | --- |
| CC(=O)Nc1sc(C)c(C)c1N=Nc1ccc(S(=O)(=O)O)cc1 | 1.15 µM | > 1.18 µM | > 10 µM |
| CN(C)c1ccc(/C=C/c2cccc(/C=C/c3ccc(N(C)C)cc3)[n+]2C)cc1 | 0.21 µM | 0.296 µM | 2.53 µM |
| O=C(Nc1ccccc1)Nc1ccc(S(=O)(=O)Nc2ccc(Br)cc2)cc1 | 0.662 µM | 1.16 µM | > 10 µM |
| N#Cc1nc(-c2ccccc2)c(-c2ccc(-c3nc(C#N)c(C#N)nc3-c3ccccc3)cc2)nc1C#N | 1.61 µM | 1.16 µM | > 10 µM |
| CCCCCCN(CCCCCC)CC(O)c1cc(-c2ccc(Cl)cc2)nc2c(C)cc(C)cc12 (configuration not stated) | 7.13 µM | 5.94 µM | 51.9 µM |
| COc1ccc(N(CCCNC(=O)CCl)C(=O)Nc2cccc(Cl)c2)cc1 | > 1.6 µM | 1.15 µM | > 10 µM |
| COC(=O)[C@@H]1C[C@@H](NC(=O)c2ccccc2F)CN1CC(c1ccccc1)c1ccccc1 | 1.06 µM | > 1.18 µM | > 10 µM |
| Clc1ccc2c(c1)c(-c1ccccc1)nc1nnnn12 | > 1.25 µM | > 1.18 µM | > 10 µM |
| CC1(c2ccccc2)CC(c2ccccc2)=Nc2nonc2N1 (configuration not stated) | 0.586 µM | 1.17 µM | > 10 µM |
| CCOc1ccc(NC(=O)N(CCC(C)C)C(C)c2nc3ccccc3c(=O)n2-c2cccc(Cl)c2C)cc1 (configuration not stated) | 1.2 µM | 1.14 µM | > 10 µM |
| Clc1cccc(C(Nc2cccnc2)(c2ccccc2)c2ccccc2)c1 | 0.618 µM | 1.19 µM | > 10 µM |
| COc1ccccc1/C=C/CN1CCN(c2ccccn2)CC1 | > 1.63 µM | > 1.15 µM | > 10 µM |
| COc1cc(CN(C)c2ccc3nc(N)nc(N)c3c2)cc(OC)c1OC | 0.00731 µM | 1.19 µM | > 10 µM |
| COc1ccccc1CNc1ncc(C(=O)NCCCN2CCCC2=O)c(NCCc2ccccc2)n1 | 0.214 µM | 1.19 µM | > 10 µM |
| CCN(c1ccc(F)cc1)S(=O)(=O)c1ccc2[nH]cc(C(=O)NCCC(C)C)c(=O)c2c1 | > 1.25 µM | > 1.15 µM | > 10 µM |
| CCc1ccc(C(=O)N2CCCn3cccc3C2c2ccc(C(C)(C)C)cc2)cc1 (configuration not stated) | > 1.25 µM | 1.16 µM | > 10 µM |
| CC(=O)Nc1ccc2c(c1)C(=O)N(C(C(=O)NC1CCCCC1)c1ccc([N+](=O)[O-])cc1)[C@@H](c1ccccc1)C(=O)N2 (some centres not stated) | > 1.25 µM | > 0.873 µM | 7.68 µM |
